# Measurements published in patent US11370785B2, “Multicyclic compounds as farnesoid X receptor modulators” (BRISTOL-MYERS SQUIBB COMPANY, priority 2017, dated 2022).
# Molecular target: T1, human FXR (Homo sapiens, UniProt Q96RI1)
# T1 construct: expressed in transfected cells; host or cells: HEK293 cells stably carrying a 5xGal4-response-element firefly luciferase reporter, transiently transfected with the pcDNA3.1-Gal4-FXR plasmid
# T1 sequence (Q96RI1 262-486 limits assumed): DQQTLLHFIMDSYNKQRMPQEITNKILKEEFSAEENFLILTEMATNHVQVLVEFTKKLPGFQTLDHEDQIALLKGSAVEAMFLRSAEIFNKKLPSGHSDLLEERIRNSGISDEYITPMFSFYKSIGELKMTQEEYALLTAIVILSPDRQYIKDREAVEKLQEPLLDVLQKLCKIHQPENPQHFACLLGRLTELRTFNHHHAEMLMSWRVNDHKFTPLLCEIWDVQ
# Assay: transient human FXR/Gal4-luciferase reporter assay
# Type: cell-based
# Conditions: Gal4-hFXR reporter in HEK293 cells; read-out: HLE GAL-FXR EC50
# How it was run: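 HEK293 cells stably carrying a 5×Gal4-response-element firefly luciferase reporter, transiently transfected with a CMV-driven Gal4 DNA-binding domain–human FXR ligand-binding domain fusion, were treated overnight at 37 °C with serially diluted compounds. Luminescence was read by Steady-Glo; DMSO background was subtracted and signal expressed as percent of the 8 μM GW-4064 response.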
row,EC50,SMILES
1,4330 nM,"Clc1cccc(Cl)c1-c1noc(C2CC2)c1C=C1CC2(CCN(c3ccc(-c4nn[nH]n4)cc3)CC2)C1 [Example 50, 4-((7-(4-(2H-tetrazol-5-yl)phenyl)-7-azaspiro[3.5]nonan-2-ylidene)methyl)-5-cyclopropyl-3-(2,6-dichlorophenyl)isoxazole]"
2,201 nM,"O=C(O)c1cc(F)c2nc(N3CCC4(CC3)CC(=Cc3c(C5CC5)cnn3-c3c(Cl)cccc3Cl)C4)sc2c1 [Example 7, 2-(2-((4-Cyclopropyl-1-(2,6-dichlorophenyl)-1H-pyrazol-5-yl)methylene)-7-azaspiro[3.5]nonan-7-yl)-4-fluorobenzo[d]thiazole-6-carboxylic acid]"

# Same assay, conditions: Gal4-hFXR reporter in HEK293 cells; relative to 8 μM GW-4064; read-out: FXR EC50
row,EC50,SMILES
1,38 nM,COCCOc1cc(C(=O)O)nc2ccc(N3CCC4(CC3)CC(=Cc3c(-c5ccccc5C(F)(F)F)noc3C3CC3)C4)cc12 [Example 98]
2,667 nM,COc1cc2nc(N3CCC4(CC3)CC(=Cc3c(-c5ccccc5C(F)(F)F)noc3C3CC3)C4)sc2cc1C(=O)O [Example 104]
3,4 nM,COc1cc(C(=O)O)nc2ccc(N3CCC4(CC3)CC(=Cc3c(-c5c(Cl)cccc5Cl)noc3C(F)(F)F)C4)cc12 [Example 140]
4,33 nM,O=C(O)c1cc(OC(F)(F)F)c2nc(N3CCC4(CC3)CC(=Cc3c(-c5c(Cl)cncc5Cl)noc3C3CC3)C4)sc2c1 [Example 101]
5,154 nM,CN(C)C(=O)c1cc(C(F)(F)F)c2cc(N3CCC4(CC3)CC(Cc3c(-c5ccccc5C(F)(F)F)noc3C3CC3)C4)ccc2n1 [Example 178]
6,10 nM,O=C(O)c1cc(OC(F)F)c2cc(N3CCC4(CC3)CC(=Cc3c(-c5ccccc5C(F)(F)F)noc3C3CC3)C4)ccc2n1 [Example 86]
7,16 nM,COc1cc(C(=O)O)nc2ccc(N3CCC4(CC3)CC(Cc3c(-c5ccccc5OC(F)(F)F)noc3C3CC3)C4)cc12 [Example 71]
8,191 nM,COc1ccc(C(=O)O)c2ccc(N3CCC4(CC3)CC(Cc3c(-c5ccccc5C(F)(F)F)noc3C3CC3)C4)nc12 [Example 118]
9,1350 nM,O=C(O)c1cc2ccc(N3CCC4(CC3)CC(Cc3c(-c5ccccc5C(F)(F)F)noc3C3CC3)C4)cc2nn1 [Example 34]
10,15 nM,O=C(O)c1cc(OC2CCCC2)c2cc(N3CCC4(CC3)CC(=Cc3c(-c5c(Cl)cncc5Cl)noc3C3CC3)C4)ccc2n1 [Example 125]
11,18 nM,O=C(O)c1cc(C(F)(F)F)c2cc(N3CCC4(CC3)CC(=Cc3c(-c5c(Cl)cncc5Cl)noc3C3CC3)C4)ccc2n1 [Example 73]
12,78 nM,O=C(O)c1cc(OC2COC2)c2cc(N3CCC4(CC3)CC(=Cc3c(-c5ccccc5C(F)(F)F)noc3C3CC3)C4)ccc2n1 [Example 137]
13,2470 nM,O=C(O)c1ncc(N2CCC3(CC2)CC(=Cc2c(-c4ccccc4C(F)(F)F)noc2C2CC2)C3)cc1C(F)(F)F [Example 157]
14,2240 nM,NC(=O)c1cc(C(F)(F)F)c2cc(N3CCC4(CC3)CC(Cc3c(-c5ccccc5C(F)(F)F)noc3C3CC3)C4)ccc2n1 [Example 177]
15,4700 nM,O=C(O)c1ccc(N2CCC3(CC2)CC(=Cc2c(C4CC4)cnn2-c2c(Cl)cccc2Cl)C3)nc1 [Example 22]
16,1240 nM,O=C(O)c1ccc2nc(N3CCC4(CC3)CC(=Cc3c(-c5ccccc5C(F)(F)F)noc3C3CC3)C4)sc2n1 [Example 113]
17,125 nM,CCOC(=O)c1cc(C(F)(F)F)c2cc(N3CCC4(CC3)CC(Cc3c(-c5ccccc5C(F)(F)F)noc3C3CC3)C4)ccc2n1 [Example 129]
18,1500 nM,COc1cc([N+](=O)[O-])ccc1S(=O)(=O)N1CCC2(CC1)CC(Cc1c(-c3c(Cl)cccc3Cl)noc1C1CC1)C2 [Example 175]
19,16 nM,O=C(O)c1cc(OC2CCCC2)c2cc(N3CCC4(CC3)CC(=Cc3c(-c5ccccc5OC(F)(F)F)noc3C3CC3)C4)ccc2n1 [Example 121]
20,27 nM,O=C(O)c1cc(C(F)(F)F)c2cc(N3CCC4(CC3)CC(=Cc3c(-c5c(Cl)cccc5Cl)noc3C(F)(F)F)C4)ccc2n1 [Example 136]
21,514 nM,O=C(O)c1ccc(N2CCC3(CC(=Cc4c(-c5c(Cl)cccc5Cl)noc4C4CC4)C3)C2)nc1 (centres unmarked) [Example 132]

row,EC50,SMILES
1,1400 nM,"NC(=O)N1CCc2cc(N3CCC4(CC3)CC(=Cc3c(-c5ccccc5OC(F)(F)F)noc3C3CC3)C4)ccc2C1 [Example 180, 6-(2-((5-Cyclopropyl-3-(2-(trifluoromethoxy)phenyl)isoxazol-4-yl)methylene)-7-azaspiro[3.5]nonan-7-yl)-3,4-dihydroisoquinoline-2(1H)-carboxamide]"
2,65 nM,COc1cc(C(=O)O)nc2ccc(N3CCC4(CC3)CC(=Cc3c(-c5ccccc5OC(F)(F)F)noc3C3CC3)C4)cc12 [Example 70]
3,260 nM,O=C(O)c1cc(F)c2nc(N3CCC4(CC3)CC(=Cc3c(-c5c(Cl)cccc5Cl)noc3C3CC3)C4)sc2c1 [Example 130]
4,64 nM,O=C(O)c1cc(OC2CCC2)c2cc(N3CCC4(CC3)CC(=Cc3c(-c5ccccc5OC(F)(F)F)noc3C3CC3)C4)ccc2n1 [Example 115]
5,305 nM,Cn1cc(C(=O)O)c2cnc(N3CCC4(CC3)CC(Nc3c(-c5c(Cl)cccc5Cl)noc3C3CC3)C4)nc21 [Example 19]
6,17 nM,CCOc1cc(C(=O)O)nc2ccc(N3CCC4(CC3)CC(Cc3c(-c5ccccc5C(F)(F)F)noc3C3CC3)C4)cc12 [Example 99]
7,2 nM,O=C(O)c1cc(OC(F)F)c2cc(N3CCC4(CC3)CC(Cc3c(-c5ccccc5C(F)(F)F)noc3C3CC3)C4)ccc2n1 [Example 79]
8,68 nM,O=C(O)c1cc(F)c2nc(N3CCC4(CC3)CC(=Cc3c(-c5c(Cl)cccc5Cl)noc3C(F)(F)F)C4)sc2c1 [Example 126]
9,12 nM,CC(C)Oc1cc(C(=O)O)nc2ccc(N3CCC4(CC3)CC(Cc3c(-c5ccccc5OC(F)(F)F)noc3C3CC3)C4)cc12 [Example 90]
10,40 nM,O=C(O)c1cn(C(F)F)c2cc(N3CCC4(CC3)CC(=Cc3c(-c5c(Cl)cncc5Cl)noc3C3CC3)C4)ccc12 [Example 77]
11,249 nM,O=C(O)c1ccc2sc(N3CCC4(CC3)CC(=Cc3c(-c5c(Cl)cncc5Cl)noc3C3CC3)C4)nc2c1 [Example 103]
12,410 nM,O=C(O)c1cc(F)c2nc(N3CCC4(CC3)CC(Cc3c(-c5ccccc5OC(F)(F)F)noc3C3CC3)C4)sc2c1 [Example 91]
13,3 nM,CC(C)Oc1cc(C(=O)O)nc2ccc(N3CCC4(CC3)CC(=Cc3c(-c5c(Cl)cncc5Cl)noc3C3CC3)C4)cc12 [Example 85]
14,28 nM,Cn1cc(C(=O)O)c2ccc(N3CCC4(CC3)CC(Cc3c(-c5ccccc5C(F)(F)F)noc3C3CC3)C4)cc21 [Example 38]
15,5280 nM,O=C(O)c1ccc(N2CCC3(CC2)CC(=Cc2c(C4CC4)nnn2-c2c(Cl)cccc2Cl)C3)nc1 [Example 21]
16,1600 nM,"CC(=O)N1CCc2cc(N3CCC4(CC3)CC(=Cc3c(-c5ccccc5OC(F)(F)F)noc3C3CC3)C4)ccc2C1 [Example 179, 1-(6-(2-((5-Cyclopropyl-3-(2-(trifluoromethoxy)phenyl)isoxazol-4-yl)methylene)-7-azaspiro[3.5]nonan-7-yl)-3,4-dihydroisoquinolin-2(1H)-yl)ethan-1-one]"
17,12 nM,O=C(O)c1cc(C(F)(F)F)c2cc(N3CCC4(CC3)CC(=Cc3c(-c5ccccc5C(F)(F)F)noc3C3CC3)C4)ccc2n1 [Example 30]
18,1670 nM,O=C(O)c1ncc(N2CCC3(CC2)CC(Cc2c(-c4ccccc4C(F)(F)F)noc2C2CC2)C3)cc1C(F)(F)F [Example 156]
19,11 nM,O=C(c1cc(OC2CCC2)c2cc(N3CCC4(CC3)CC(Cc3c(-c5ccccc5C(F)(F)F)noc3C3CC3)C4)ccc2n1)N1CCC(O)CC1 [Example 190]
20,47 nM,O=C(O)c1cc(C(F)(F)F)c2cc(N3CCC4(CC3)CC(=Cc3c(-c5ccccc5C(F)(F)F)noc3C(F)(F)F)C4)ccc2n1 [Example 167]

row,SMILES,EC50
1,O=C(O)c1cc(F)c2nc(N3C4CCC3CC3(CC(Nc5c(-c6c(Cl)cccc6Cl)noc5C5CC5)C3)C4)sc2c1 (centres unmarked) [Example 16],514 nM
